Data on one sequence can be found in PMC7179399, “Development and Characterization of the Shortest Anti-Adhesion Peptide Analogue of B49Mod1” (Molecules, 2020).

Ends that are not written are not given here.

Holding throughout (conditions): 24 h
In one series the test system is MCF7. The series is classed as cell-based, human. As to the method:
(§1) Viability Assay: Equivalent numbers of cells from each cell line was seeded in 96-well plate and incubated at 37 °C for 24 hours before treatment. The cells were treated with different concentration of peptides and incubated for 24 hours at 37 °C. 20 µl of 5mg/ml of MTT reagent was added to each well and incubated for 4 hours at 37 °C. The supernatant was then removed, followed by addition of 150 µl of MTT solvent, with shaking 15 min at room temperature. Absorbance at 590 nm was then measured through the BioTek Synergy H1 microplate reader.

In another series the test system is SKBR3. The series is classed as cell-based, human. Here is the method:
as §1

For series [1], the system named is human peripheral blood mononuclear cells (PBMCs). Description: MTT viability assay, PBMCs. The series is classed as cell-based.
Text: Cell Lines: MDA-MB-468, MDA-MB-231, ZR-75-1, MCF7, and T47D were obtained from the Physical Sciences-Oncology Network (PS-ON) Bioresource Core Facility (PBCF) at American Type Culture Collection (ATCC, Manassas, VA, USA). SKBR3 cell line was a kind gift from Dr. Hyungjin Kim at Stony Brook University. ZR-75-1, MCF7, and T47D were maintained in complete RPMI 1640 media. MDA-MB-468, MDA-MB-231, and SKBR3 were maintained in complete DMEM media. Both complete RPMI and DMEM were supplemented with 10% FBS, 1% penicillin-streptomycin, 1 µg/mL Amphotericin B, 1% of l-glutamine, 2 mM sodium pyruvate, and 10 mM HEPES buffer at pH 8. Human Peripheral Blood Mononuclear Cells (PBMCs) were isolated from fresh human blood by Ficoll-Paque PLUS and cultured in complete RPMI 1640 media.
as §1
In general terms: Formazan colour is commonly taken as a measure of viable cells.

Regarding GFQDVEAQAATCNHTVMA [B18], the IC50 with MCF7 came out at 59.8 ± 5.3 µM; in the series on SKBR3 it was 11.2 ± 3.4 µM. Moreover, in series [1], the “cytotoxic effect on quiescent PBMCs” value is recorded as “no cytotoxic effect was observed”.

In general, IC50 refers to the concentration needed to halve the response being measured.
